Laboratory results published in article PMC3653620 (Investigative radiology, 2012).
“Also recorded” adds a separate entry of the source. Like-named read-outs stand apart in the source and are kept apart here. Where a SMILES comes first, the peptide text is derived from it. Bridges are numbered along the chain shown (N, C = ends). [ ]: non-standard residue; d: D form. The star is where a group is joined. X1 = O=C(O)CN1CCN(CC(=O)O)CCN(C(CCC(=O)NCC[C@H](NC(=O)CCC(C(=O)O)N2CCN(CC(=O)O)CCN(CC(=O)O)CCN(CC(=O)O)CC2)C(=O)NCc2ccc(CN*)cc2)C(=O)O)CCN(CC(=O)O)CC1; DOTAGA = O=C(O)CN1CCN(CC(=O)O)CCN(C(CCC(=O)*)C(=O)O)CCN(CC(=O)O)CC1; Tyr(3-Cl) = N[C@@H](Cc1ccc(O)c(Cl)c1)C(=O)O; Hyp = O=C(O)[C@@H]1C[C@@H](O)CN1; Dab = NCC[C@H](N)C(=O)O

Key:
[1] = cited from earlier work
[2] = cited from earlier work; for relaxivity at 9.4T: per molecule
[3] = tested on: blood plasma proteins; settings: cited from earlier work
[4] = tested on: tumor core (breast cancer xenograft, BT-20); experiment: Contrast agent washout from tumor core, T1-weighted MRI at 9.4T; type: in vivo, nude mice; human adenocarcinoma BT-20 cell line
[5] = tested on: thrombi in the heart chambers, arteries or veins; settings: animal models and clinical trials; ref [32]-[43]; cited from earlier work
[6] = tested on: tumor periphery (breast cancer xenograft, BT-20); experiment: Contrast agent washout from tumor periphery, T1-weighted MRI at 9.4T; type: in vivo, nude mice; human adenocarcinoma BT-20 cell line; settings: for retention in the tumor periphery / washout, in words: Gd-DTPA 200, EP-2104R or CLP 20 μmol/kg i.v.; for t1/2 in the tumor periphery: CNR vs time

CC[C@H](C)[C@H](NC(=O)[C@H](Cc1ccc(O)cc1)NC(=O)[C@@H]1CSSC[C@H](NC(=O)[C@@H](CCC(=O)O)NC(=O)[C@H](Cc2ccc(O)cc2)NC(=O)[C@H](CCNC(=O)CCC(C(=O)O)N2CCN(CC(=O)O)CCN(CC(=O)O)CCN(CC(=O)O)CC2)NC(=O)CCC(C(=O)O)N2CCN(CC(=O)O)CCN(CC(=O)O)CCN(CC(=O)O)CC2)C(=O)N2C[C@H](O)C[C@H]2C(=O)N[C@@H](Cc2ccc(O)c(Cl)c2)C(=O)NCC(=O)N[C@@H](CC(C)C)C(=O)N1)C(=O)N[C@@H](CCC(N)=O)C(=O)NCc1ccc(CNC(=O)[C@H](CCNC(=O)CCC(C(=O)O)N2CCN(CC(=O)O)CCN(CC(=O)O)CCN(CC(=O)O)CC2)NC(=O)CCC(C(=O)O)N2CCN(CC(=O)O)CCN(CC(=O)O)CCN(CC(=O)O)CC2)cc1 (stereo partly drawn) [EP-2104R] ({DOTAGA}-[Dab](DOTAGA)Y[dE]C[Hyp][Tyr(3-Cl)]GLCYIQ-X1; disulfide 4-9; N-terminus and C-terminus assumed)
excretion ([1]; in vivo): exclusive renal excretion | relaxivity at 9.4T, per Gd ([2]; 9.4T, per Gd, ref [48],[49]): 6.4 mM⁻¹ s⁻¹ | relaxivity at 9.4T ([2]; 9.4T, ref [48],[49]): 25.6 mM⁻¹ s⁻¹ | relaxivity of fibrin-bound probe at 9.4T vs clinical field strengths ([2]; fibrin-bound, 9.4T vs clinical field strengths, ref [22],[48]): much lower at this field compared to clinical field strengths | affinity for blood plasma proteins [3]: only very low affinity for blood plasma proteins | enhancement of tumor ([4]; EP-2104R 20 μmol/kg i.v., transient, tumor core and periphery, 9.4T): transiently enhanced both the tumor core and periphery | washout from the tumor core, % slower than Gd-DTPA ([4]; in vivo): 20% | t1/2, washout from the tumor core ([4]; mouse, in vivo, iv): 45 ± 9 min | identification of thrombi [5]: efficacious in identifying thrombi in the heart chambers, arteries or veins | retention in the tumor periphery / washout, in words ([6]; 9.4T): stays in the tumor periphery much longer than Gd-DTPA or CLP; also recorded: significantly longer retained in the tumor periphery; also recorded: retained significantly longer in the tumor periphery than either Gd-DTPA or CLP | duration of persistent enhancement of the tumor periphery ([6]; after EP-2104R injection, 20 μmol/kg i.v., FLASH images, 9.4T): ≥ 90 min | variability of washout from the tumor periphery ([6]; in vivo): varied several fold across this ROI | washout from the tumor periphery, % slower than Gd-DTPA ([6]; in vivo): 190±75% | washout from the tumor periphery, fold slower than CLP ([6]; in vivo): 5 fold | Half-life in the tumor periphery (mean ± SEM) ([6]; in vivo, iv): 103 ± 18 min | t1/2 in the tumor periphery, Mean (St Dev) ([6]; in vivo, iv): 103 (53) min

CNC[C@H](O)[C@@H](O)[C@H](O)[C@H](O)CO.CNC[C@H](O)[C@@H](O)[C@H](O)[C@H](O)CO.O=C([O-])CN(CCN(CC(=O)[O-])CC(=O)O)CCN(CC(=O)[O-])CC(=O)O.[Gd+3] [Gd-DTPA, Gadopentetate dimeglumine]
excretion ([1]; ref [22],[33]): exclusive renal excretion | relaxivity at 9.4T ([2]; 9.4T, ref [48],[49]): 3.7 mM⁻¹ s⁻¹ | affinity for blood plasma proteins ([3]; ref [22],[33]): only very low affinity for blood plasma proteins | t1/2, washout from the tumor core ([4]; 3 mice, Gd-DTPA 200 μmol/kg followed by CLP 20 μmol/kg i.v., ±SEM, p=0.35): 28 ± 5 min | t1/2, washout from the tumor core ([4]; 6 mice, Gd-DTPA 200 μmol/kg followed by EP-2104R 20 μmol/kg i.v., ±SEM, p=0.17): 38 ± 9 min | retention in the tumor periphery / washout, in words ([6]; 9.4T): not retained in the tumor periphery; also recorded: significantly faster washout than EP-2104R | half-life in tumor periphery compared with EP-2104R ([6]; all animals, p<0.05 for both): significantly shorter | variability of washout from the tumor periphery ([6]; among all the mice, or across the tumor periphery ROI in some mice): very similar among all the mice | t1/2 in the tumor periphery ([6]; animal 3, Gd-DTPA 200 μmol/kg then EP-2104R 20 μmol/kg i.v., 9.4T): 27 min | t1/2 in the tumor periphery ([6]; animal 4, Gd-DTPA 200 μmol/kg then EP-2104R 20 μmol/kg i.v., 9.4T): 38 min | t1/2 in the tumor periphery ([6]; animal 5, Gd-DTPA 200 μmol/kg then EP-2104R 20 μmol/kg i.v., 9.4T): 26 min | t1/2 in the tumor periphery ([6]; animal 6, Gd-DTPA 200 μmol/kg then EP-2104R 20 μmol/kg i.v., 9.4T): 23 min | t1/2 in the tumor periphery ([6]; animal 7, Gd-DTPA 200 μmol/kg then EP-2104R 20 μmol/kg i.v., 9.4T): 38 min | t1/2 in the tumor periphery ([6]; animal 8, Gd-DTPA 200 μmol/kg then EP-2104R 20 μmol/kg i.v., 9.4T): 41 min | t1/2 in the tumor periphery ([6]; animal 9, Gd-DTPA 200 μmol/kg then CLP 20 μmol/kg i.v., 9.4T): 29 min | t1/2 in the tumor periphery ([6]; animal 10, Gd-DTPA 200 μmol/kg then CLP 20 μmol/kg i.v., 9.4T): 20 min | t1/2 in the tumor periphery ([6]; animal 11, Gd-DTPA 200 μmol/kg then CLP 20 μmol/kg i.v., 9.4T): 27 min
